Results from patent US8815529B2, “Sulfotransferase assay” (Research & Diagnostics Systems, Inc., priority 2011, dated 2014).
Blank lines part the entries; values can stand above or below the compound they belong to.

Columns and labels:
[1] = molecular target: T1, gPAPP (Mus musculus, UniProt Q80V26); test: Specificity of gPAPP on 3′-AMP, 5′-AMP, PAP and PAPS (phosphate release); format: biochemical; settings: for activity of gPAPP alone on the nucleotide: 1 μg gPAPP; for activity of gPAPP alone on the nucleotide / phosphate released by gPAPP versus amount of gPAPP: 10 mM Mg2+; for phosphate released by gPAPP versus amount of gPAPP: 50 nmol PAP or PAPS, pH 7.5, 20 minutes
T1 construct: N-terminal His-tagged recombinant protein containing amino acids from E51 to K356; His tag (N); host or cells: CHO cells
T1 sequence (Q80V26 51-356): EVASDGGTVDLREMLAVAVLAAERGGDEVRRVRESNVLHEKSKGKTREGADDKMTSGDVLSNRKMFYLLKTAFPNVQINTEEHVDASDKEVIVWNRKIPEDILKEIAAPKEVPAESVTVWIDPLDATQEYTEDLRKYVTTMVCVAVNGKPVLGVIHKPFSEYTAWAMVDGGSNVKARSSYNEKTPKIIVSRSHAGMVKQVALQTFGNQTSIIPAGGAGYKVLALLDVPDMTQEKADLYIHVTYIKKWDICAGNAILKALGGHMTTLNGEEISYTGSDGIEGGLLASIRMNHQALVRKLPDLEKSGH
Description: (§1) In the following examples, the gPAPP used was recombinant mouse gPAPP expressed in CHO cells as an N-terminal His-tagged recombinant protein containing amino acids from E51 to K356, created by R & D Systems. The sequence was based on accession number NP 808398 from the National Center for Biotechnology Information. The chondroitin sulfate (CS) and p-nitrophenol (pNP) were obtained from Sigma Aldrich. The PAPS was prepared by R & D Systems using recombinant S. cerevisiae ATP sulurylase and P. chrysogenum APS kinase. The APS kinase was also prepared by R & D Systems. Recombinant human SULT1A1, CHST3, CD73, TNAP and Malachite Green Phosphate Detection Kit were from R & D Systems. Protein concentrations were quantified using the Bradford assay as described by Bradford, M. M., A rapid and sensitive method for the quantitation of microgram quantities of protein utilizing the principle of protein-dye binding. Anal Biochem. 1976. Vol 72, Page 248-254, the relevant portions of which are hereby incorporated by reference. Phosphate levels were determined using the Malachite Green Phosphate Detection Kit available from R & D Systems, according to the package instructions. All examples were performed in a buffer of 25 mM Tris at pH 7.5.
The specificity of gPAPP was first tested on 3′-AMP, 5′-AMP and PAP in the absence or presence of CD73 by combining 10 nmol of either 3′-AMP, 5′-AMP or PAP with 1 μg gPAPP and/or 0.1 μg CD73 in 50 μL assay buffer containing 10 mM Mg^2 at pH 7.5. In a parallel experiment, the same amount of nucleotide was combined with tissue-non-specific alkaline phosphatase (TNAP) at pH 9.0. The ratio between the phosphate released by gPAPP and/or CD73 (Pi) and the phosphate released by TNAP (PiTNAP) was plotted versus the nucleotide and phosphatases in FIG. 5. […] When gPAPP and CD73 were used together, they released twice as much phosphate from PAP than gPAPP alone.
The specificity of gPAPP was tested on PAP and PAPS. In this example, 50 nmol of either PAP or PAPS was treated with different amounts of gPAPP in 50 μL assay buffer containing 10 mM Mg^2 at pH 7.5 for 20 minutes. The released phosphate was plotted versus the amount of gPAPP.

[2] = test system: sulfotransferases; settings: reported; cited from earlier work
[3] = molecular target: T1, gPAPP; test: Inhibition of gPAPP hydrolysis of PAP by PAPS; format: biochemical; settings: 0.5 mM PAPS, amount of PAP greater than the coupling capacity
Description: as §1, with “Vol 72, Page 248-254, the relevant portions of which are hereby incorporated by reference.” left out, “All examples were performed in a buffer of 25 mM Tris at pH 7.5.” left out
In this example, the coupling capacity of gPAPP was determined. […] The coupling capacity of gPAPP was determined by combining 1 μg gPAPP with increasing amounts of PAP, in the presence or absence of 0.5 mM PAPS in 50 μL assay buffer containing 10 mM Mg^2+ at pH 7.5 for either 20 or 40 minutes. […]

[4] = molecular target: T2, CHST3 (Homo sapiens, UniProt Q7LGC8); test: CHST3 substrate curves for CS and PAPS, gPAPP-coupled assay; format: biochemical
T2 construct: purchased R & D Systems
T2 sequence (Q7LGC8 1-479): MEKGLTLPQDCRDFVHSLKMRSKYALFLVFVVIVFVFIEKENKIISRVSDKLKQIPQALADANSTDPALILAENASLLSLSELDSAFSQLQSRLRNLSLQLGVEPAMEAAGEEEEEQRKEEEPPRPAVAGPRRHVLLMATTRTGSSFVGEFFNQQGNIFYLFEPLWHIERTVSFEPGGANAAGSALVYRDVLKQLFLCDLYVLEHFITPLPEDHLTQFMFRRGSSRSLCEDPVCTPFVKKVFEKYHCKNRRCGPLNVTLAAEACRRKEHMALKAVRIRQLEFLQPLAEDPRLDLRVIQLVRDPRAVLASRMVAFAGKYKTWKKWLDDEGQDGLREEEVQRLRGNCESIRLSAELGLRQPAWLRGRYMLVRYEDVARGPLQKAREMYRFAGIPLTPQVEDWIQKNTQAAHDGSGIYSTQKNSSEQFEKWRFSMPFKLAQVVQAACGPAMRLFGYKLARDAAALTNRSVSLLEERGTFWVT
Description: as §1
Carbohydrate sulfotransferase 3 (CHST3) is a sulfotransferase which is known to catalyze the sulfation of N-acetylgalactosamine at the 6-O position. In a first series of reactions, 1 μg CHST3 was combined with 1 μg gPAPP and increasing concentrations of CS in 50 μl assay buffer containing 0.8 mM PAPS, 10 mM MgCl2 at pH 7.5. In a second series of reactions, 0.4 μg CHST3 was combined with 1 μg gPAPP and increasing concentrations of PAPS in 50 μL assay buffer containing […], 10 mg/ml CS, 10 mM MgCl2 at pH 7.5.
An enzyme dose curve was then created for CHST3 at the optimal concentrations for both the donor and acceptor substrates in FIG. 11. To create the dose curve, 1 μg gPAPP was combined with increasing amounts of CHST3 in the presence of 10 mg/ml of CS and 0.5 mM of PAPS in 50 μl assay buffer containing 10 mM MgCl2 at pH 7.5.

[5] = molecular target: T3, SULT1A1 (Homo sapiens, UniProt P50225); test: SULT1A1 velocity versus pNP concentration, gPAPP/CD73-coupled assay; format: biochemical; set-up: purchased R & D Systems; settings: 0.1 μg SULT1A1, 0.25 mM PAPS, gPAPP and CD73
T3 sequence (P50225 whole entry): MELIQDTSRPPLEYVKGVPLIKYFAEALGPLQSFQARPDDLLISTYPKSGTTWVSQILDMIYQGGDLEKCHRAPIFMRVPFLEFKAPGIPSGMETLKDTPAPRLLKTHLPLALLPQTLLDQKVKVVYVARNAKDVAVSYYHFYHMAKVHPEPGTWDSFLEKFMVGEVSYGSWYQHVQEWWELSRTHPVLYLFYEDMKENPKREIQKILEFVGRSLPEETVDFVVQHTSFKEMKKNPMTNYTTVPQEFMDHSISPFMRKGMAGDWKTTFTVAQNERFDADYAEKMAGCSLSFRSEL
Description: as §1, with “Anal Biochem. 1976. Vol 72, Page 248-254, the relevant portions of which are hereby incorporated by reference.” left out, “All examples were performed in a buffer of 25 mM Tris at pH 7.5.” left out
A series of reactions were performed by combining increasing concentrations of pNP with 0.1 μg SULT1A1, 2 μg PAPP and 0.1 μg CD73 in 200 μL of an assay buffer containing 0.25 mM PAPS, 10 mM MgCl2 at pH 7.5. […] These values are consistent with reported values for SULT1A1 determined using radioisotope assays in the literature.

[6] = molecular target: T3, SULT1A1; settings: read-out: half maximal velocity (Km); reported; cited from earlier work

Compound: Nc1ncnc2c1ncn2[C@@H]1O[C@H](CO)[C@@H](OP(=O)(O)O)[C@H]1O [3′-AMP]
activity of gPAPP alone on the nucleotide ([1]; 10 nmol nucleotide, pH 7.5): not

Compound: Nc1ncnc2c1ncn2[C@@H]1O[C@H](COP(=O)(O)OS(=O)(=O)O)[C@@H](OP(=O)(O)O)[C@H]1O [PAPS, 3′-phosphoadenosine-5′-phosphosulfate]
phosphate released by gPAPP versus amount of gPAPP [1]: showed no change | inhibition of the hydrolysis of PAP [3]: ~20% | level above which substrate inhibition occurred ([4]; 0.4 μg CHST3, 10 mg/ml CS): above 0.5 mM | Km ([4]; 0.4 μg CHST3, 10 mg/ml CS, read-out: concentration for half-maximal velocity (Km for PAPS)): < 100 µM | optimal concentration (visually determined) ([4]; highest point of the curve of FIG. 10B): about 0.5 mM

Compound: O=[N+]([O-])c1ccc(O)cc1 [pNP, p-nitrophenol]
concentration above which substrate inhibition was present [5]: above 4 mM | concentration for half maximum velocity ([5]; projected): < 1.0 µM | Km [6]: < 1 µM

Compound: chondroitin sulfate [CS]
concentration for half-maximal velocity (Km for CS) ([4]; 1 μg CHST3, 0.8 mM PAPS): about 2 mg/ml | substrate inhibition ([4]; 1 μg CHST3, 0.8 mM PAPS): no substrate inhibition | optimal concentration (visually determined) ([4]; highest point of the curve of FIG. 10A): > 5 mg/mL

Second part, led by results:

activity of gPAPP alone on the nucleotide ([1]; 10 nmol nucleotide, pH 7.5): not
Compound: Nc1ncnc2c1ncn2[C@@H]1O[C@H](COP(=O)(O)O)[C@@H](O)[C@H]1O [5′-AMP, 5-adenosine monophosphate]

phosphate released by gPAPP and CD73 together compared with gPAPP alone ([1]; 10 nmol nucleotide, 1 μg gPAPP and 0.1 μg CD73, 10 mM Mg2+, pH 7.5): twice as much | activity of gPAPP alone on the nucleotide ([1]; 10 nmol nucleotide, pH 7.5): showed activity | phosphate released by gPAPP versus amount of gPAPP [1]: increased with the amount of the enzyme
Compound: Nc1ncnc2c1ncn2[C@@H]1O[C@H](COP(=O)(O)O)[C@@H](OP(=O)(O)O)[C@H]1O [PAP, 3′-phosphoadenosine-5′-phosphate]
inhibition of sulfotransferases [2]: potent inhibitor
